# Experimental data reported in patent US20080114168A1, “Novel esters as useful broad spectrum herbicidal compounds” (priority 2004, published 2008).
# Legend:
# broad leaved weeds = assay: herbicidal activity against broad leaved weeds, applied in aqueous solution; format: in vivo; conditions: applied in an aqueous solution at 500-2000 ppm
# grasses = assay: herbicidal activity against grasses, applied in aqueous solution; format: in vivo; conditions: applied in an aqueous solution at 500-2000 ppm
# [1] = general herbicidal character (selective or non-selective); conditions: in vivo
# [2] = tested on: glufosinate-resistant corn; assay: crop selectivity; format: in vivo; conditions: aqueous solution at 500-2000 ppm
SMILES,herbicidal activity against broad leaved weeds (broad leaved weeds),herbicidal activity against grasses (grasses),herbicide selectivity (general) [1],selectivity to crop [2]
CP(=O)(O)CCC(N)C(=O)Oc1c(Cl)cnc(Cl)c1Cl (racemic) [Example 2],active,active,powerful non-selective herbicide,
"CP(=O)(O)CCC(N)C(=O)Oc1cc(Cl)nnc1-c1ccccc1 (racemic) [Example 1, 6-chloro-3-phenylpyridazin-4-yl 4-[hydroxyl(methyl)phosphinoyl]-DL-alaninate]",active,active,,selective
